Results from ChEMBL document CHEMBL1743141, “Membrane transporters in drug development” (Nat Rev Drug Discov, 2010).
Peptide text beside a SMILES is read from it.

Columns and labels:
Type in all cases: ADME
[1] = target: T1, Solute carrier family 15 member 1 (Homo sapiens, UniProt P46059); assay: Inhibitors of transporters of clinical importance in the absorption and disposition of drugs, PEPT1
T1 sequence (P46059 whole entry): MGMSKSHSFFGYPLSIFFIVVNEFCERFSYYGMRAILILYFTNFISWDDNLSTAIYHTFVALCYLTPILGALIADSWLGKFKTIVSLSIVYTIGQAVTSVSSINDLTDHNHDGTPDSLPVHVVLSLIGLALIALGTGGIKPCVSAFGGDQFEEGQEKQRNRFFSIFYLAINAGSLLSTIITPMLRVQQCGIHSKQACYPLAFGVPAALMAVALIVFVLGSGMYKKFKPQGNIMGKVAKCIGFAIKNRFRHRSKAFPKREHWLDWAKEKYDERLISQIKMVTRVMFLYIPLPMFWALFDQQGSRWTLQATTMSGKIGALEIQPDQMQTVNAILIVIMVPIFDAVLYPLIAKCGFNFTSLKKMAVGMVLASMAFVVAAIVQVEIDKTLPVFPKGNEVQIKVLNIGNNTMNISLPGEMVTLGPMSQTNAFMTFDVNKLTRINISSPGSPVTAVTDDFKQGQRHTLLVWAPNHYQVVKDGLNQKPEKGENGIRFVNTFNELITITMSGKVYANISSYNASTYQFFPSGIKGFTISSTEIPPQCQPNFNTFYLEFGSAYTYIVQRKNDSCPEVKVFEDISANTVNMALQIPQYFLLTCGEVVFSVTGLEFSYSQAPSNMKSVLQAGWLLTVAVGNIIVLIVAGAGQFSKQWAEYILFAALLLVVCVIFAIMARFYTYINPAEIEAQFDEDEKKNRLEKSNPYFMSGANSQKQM

[2] = target: T2, Solute carrier organic anion transporter family member 2B1 (Homo sapiens, UniProt O94956); assay: Inhibitors of transporters of clinical importance in the absorption and disposition of drugs, OATP2B1
T2 sequence (O94956 whole entry): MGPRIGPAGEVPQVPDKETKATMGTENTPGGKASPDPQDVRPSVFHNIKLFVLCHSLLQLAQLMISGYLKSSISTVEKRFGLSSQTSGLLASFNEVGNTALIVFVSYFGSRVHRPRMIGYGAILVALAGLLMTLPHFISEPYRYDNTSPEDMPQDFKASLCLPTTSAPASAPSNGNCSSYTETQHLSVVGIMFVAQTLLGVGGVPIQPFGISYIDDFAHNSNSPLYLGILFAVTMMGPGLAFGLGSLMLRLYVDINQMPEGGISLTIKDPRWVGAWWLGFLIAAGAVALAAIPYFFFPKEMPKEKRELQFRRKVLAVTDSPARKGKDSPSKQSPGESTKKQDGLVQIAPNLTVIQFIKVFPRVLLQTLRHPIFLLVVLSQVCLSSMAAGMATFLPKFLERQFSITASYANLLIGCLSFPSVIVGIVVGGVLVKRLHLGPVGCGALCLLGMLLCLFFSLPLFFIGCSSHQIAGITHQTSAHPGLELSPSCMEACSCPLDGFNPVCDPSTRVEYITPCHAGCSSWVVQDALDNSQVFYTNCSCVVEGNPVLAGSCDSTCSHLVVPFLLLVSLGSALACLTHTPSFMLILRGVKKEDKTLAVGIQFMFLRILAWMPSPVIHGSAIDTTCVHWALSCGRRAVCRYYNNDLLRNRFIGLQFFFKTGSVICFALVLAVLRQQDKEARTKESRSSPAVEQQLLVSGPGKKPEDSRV

[3] = target: T3, Solute carrier organic anion transporter family member 1A2 (Homo sapiens, UniProt P46721); assay: Inhibitors of transporters of clinical importance in the absorption and disposition of drugs, OATP1A2
T3 sequence (P46721 whole entry): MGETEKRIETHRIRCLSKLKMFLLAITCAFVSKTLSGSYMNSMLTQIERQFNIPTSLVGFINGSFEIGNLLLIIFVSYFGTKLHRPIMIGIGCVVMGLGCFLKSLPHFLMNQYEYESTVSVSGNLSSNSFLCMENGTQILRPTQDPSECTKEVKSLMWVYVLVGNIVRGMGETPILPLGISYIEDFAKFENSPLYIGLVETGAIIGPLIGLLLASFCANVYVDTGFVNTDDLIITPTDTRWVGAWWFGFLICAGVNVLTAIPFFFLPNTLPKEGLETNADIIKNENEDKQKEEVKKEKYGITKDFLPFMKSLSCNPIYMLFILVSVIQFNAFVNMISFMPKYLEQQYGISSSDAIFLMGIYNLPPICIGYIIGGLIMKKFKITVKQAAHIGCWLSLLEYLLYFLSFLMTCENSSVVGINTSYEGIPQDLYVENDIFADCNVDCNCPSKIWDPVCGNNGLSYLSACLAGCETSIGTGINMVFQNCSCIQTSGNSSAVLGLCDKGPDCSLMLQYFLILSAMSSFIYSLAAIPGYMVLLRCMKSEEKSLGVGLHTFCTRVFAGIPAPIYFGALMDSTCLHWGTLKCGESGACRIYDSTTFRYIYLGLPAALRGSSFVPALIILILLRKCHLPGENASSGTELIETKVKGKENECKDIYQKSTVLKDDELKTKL

[4] = target: T4, Solute carrier organic anion transporter family member 1B3 (Homo sapiens, UniProt Q9NPD5); assay: Inhibitors of transporters of clinical importance in the absorption and disposition of drugs, OATP1B3
T4 sequence (Q9NPD5 whole entry): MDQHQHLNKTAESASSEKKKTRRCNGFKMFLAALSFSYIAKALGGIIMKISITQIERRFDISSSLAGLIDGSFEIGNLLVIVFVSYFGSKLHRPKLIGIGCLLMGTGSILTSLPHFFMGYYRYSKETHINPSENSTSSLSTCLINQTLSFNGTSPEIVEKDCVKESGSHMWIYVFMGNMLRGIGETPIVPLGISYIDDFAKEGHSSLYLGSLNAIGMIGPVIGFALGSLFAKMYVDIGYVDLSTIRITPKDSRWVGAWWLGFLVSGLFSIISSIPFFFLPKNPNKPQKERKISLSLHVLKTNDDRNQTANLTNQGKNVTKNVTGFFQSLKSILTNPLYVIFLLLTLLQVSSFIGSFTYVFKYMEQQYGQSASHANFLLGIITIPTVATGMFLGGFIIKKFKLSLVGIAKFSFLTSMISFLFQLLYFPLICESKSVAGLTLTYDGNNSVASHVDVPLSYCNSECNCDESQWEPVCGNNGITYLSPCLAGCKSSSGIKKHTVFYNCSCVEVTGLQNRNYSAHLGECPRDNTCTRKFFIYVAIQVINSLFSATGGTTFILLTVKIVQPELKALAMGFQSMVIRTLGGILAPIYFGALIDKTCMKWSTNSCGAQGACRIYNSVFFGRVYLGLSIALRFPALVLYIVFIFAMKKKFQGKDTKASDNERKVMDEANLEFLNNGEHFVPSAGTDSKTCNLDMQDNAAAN

Bile salt export pump = Bile salt export pump (Homo sapiens, UniProt O95342); assay: Inhibitors of transporters of clinical importance in the absorption and disposition of drugs, BSEP
[5] = target: T5, Solute carrier organic anion transporter family member 1B1 (Homo sapiens, UniProt Q9Y6L6); assay: Inhibitors of transporters of clinical importance in the absorption and disposition of drugs, OATP1B1
T5 sequence (Q9Y6L6 whole entry): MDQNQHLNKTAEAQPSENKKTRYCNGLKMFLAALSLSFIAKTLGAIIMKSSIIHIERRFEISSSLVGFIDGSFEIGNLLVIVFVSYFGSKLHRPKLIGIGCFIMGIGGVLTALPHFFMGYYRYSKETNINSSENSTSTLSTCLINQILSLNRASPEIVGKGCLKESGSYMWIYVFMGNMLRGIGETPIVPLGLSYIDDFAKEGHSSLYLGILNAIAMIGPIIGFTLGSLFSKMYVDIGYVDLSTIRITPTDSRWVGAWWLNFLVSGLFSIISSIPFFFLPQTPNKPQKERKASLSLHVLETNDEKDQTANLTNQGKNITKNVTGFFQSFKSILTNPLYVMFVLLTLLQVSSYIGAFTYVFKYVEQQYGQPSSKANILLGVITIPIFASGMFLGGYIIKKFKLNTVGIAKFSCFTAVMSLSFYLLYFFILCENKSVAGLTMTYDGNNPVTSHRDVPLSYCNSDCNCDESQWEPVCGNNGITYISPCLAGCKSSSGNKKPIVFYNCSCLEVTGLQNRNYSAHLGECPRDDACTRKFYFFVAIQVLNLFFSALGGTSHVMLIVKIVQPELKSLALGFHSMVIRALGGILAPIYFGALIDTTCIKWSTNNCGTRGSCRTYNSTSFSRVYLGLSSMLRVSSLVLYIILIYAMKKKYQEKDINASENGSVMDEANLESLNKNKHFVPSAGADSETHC

Bile salt export pump, sequence (O95342 whole entry): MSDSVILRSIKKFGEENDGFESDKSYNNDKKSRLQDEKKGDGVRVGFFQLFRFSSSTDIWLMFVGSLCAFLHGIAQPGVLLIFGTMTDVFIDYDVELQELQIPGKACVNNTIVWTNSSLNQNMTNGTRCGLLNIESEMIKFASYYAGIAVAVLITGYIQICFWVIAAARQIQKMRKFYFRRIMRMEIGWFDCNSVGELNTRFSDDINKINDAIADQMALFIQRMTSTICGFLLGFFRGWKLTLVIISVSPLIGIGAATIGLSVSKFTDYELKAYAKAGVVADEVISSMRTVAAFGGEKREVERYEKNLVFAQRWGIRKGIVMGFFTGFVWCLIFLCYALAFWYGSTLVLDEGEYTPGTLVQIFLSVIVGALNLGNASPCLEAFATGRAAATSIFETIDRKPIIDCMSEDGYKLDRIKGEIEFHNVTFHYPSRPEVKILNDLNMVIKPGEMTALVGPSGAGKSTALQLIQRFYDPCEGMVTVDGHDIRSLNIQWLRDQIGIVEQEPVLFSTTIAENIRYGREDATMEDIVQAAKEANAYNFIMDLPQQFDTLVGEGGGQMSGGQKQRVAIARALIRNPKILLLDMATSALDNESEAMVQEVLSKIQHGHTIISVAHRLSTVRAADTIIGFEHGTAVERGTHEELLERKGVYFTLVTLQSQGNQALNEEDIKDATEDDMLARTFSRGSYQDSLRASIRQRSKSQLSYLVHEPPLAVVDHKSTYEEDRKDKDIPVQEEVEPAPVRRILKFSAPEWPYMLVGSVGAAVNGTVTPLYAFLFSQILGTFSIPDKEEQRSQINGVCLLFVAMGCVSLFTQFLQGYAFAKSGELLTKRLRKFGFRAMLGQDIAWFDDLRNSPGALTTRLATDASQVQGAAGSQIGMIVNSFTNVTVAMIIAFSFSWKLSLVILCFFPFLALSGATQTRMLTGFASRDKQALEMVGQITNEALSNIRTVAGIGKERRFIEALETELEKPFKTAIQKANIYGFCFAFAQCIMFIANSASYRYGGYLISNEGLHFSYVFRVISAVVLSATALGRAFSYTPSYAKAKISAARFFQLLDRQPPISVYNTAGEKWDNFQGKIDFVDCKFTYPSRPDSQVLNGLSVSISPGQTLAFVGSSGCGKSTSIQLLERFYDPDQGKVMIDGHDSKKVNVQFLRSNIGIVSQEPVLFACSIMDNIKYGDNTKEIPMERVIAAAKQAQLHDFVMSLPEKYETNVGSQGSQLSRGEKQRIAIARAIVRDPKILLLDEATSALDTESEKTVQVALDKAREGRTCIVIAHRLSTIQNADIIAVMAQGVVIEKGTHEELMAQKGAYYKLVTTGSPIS

Activity [1] | Activity [2] | Activity [3] | Activity [4] | Activity [5] | SMILES | Activity (Bile salt export pump)
transporter inhibitor | – | – | – | – | NCC(=O)N1CCC[C@H]1C(=O)O [GLYCYL PROLINE] (H-Gly-Pro-OH) | –
– | transporter inhibitor | transporter inhibitor | transporter inhibitor | transporter inhibitor | CO[C@H]1/C=C/O[C@@]2(C)Oc3c(C)c(O)c4c(O)c(c(/C=N/N5CCN(C)CC5)c(O)c4c3C2=O)NC(=O)/C(C)=C\C=C\[C@H](C)[C@H](O)[C@@H](C)[C@@H](O)[C@@H](C)[C@H](OC(C)=O)[C@@H]1C [RIFAMPIN] | transporter inhibitor
